Test results published in PMC6923382, “Small molecules that inhibit TNF signalling by stabilising an asymmetric form of the trimer” (Nature Communications, 2019).
Values joined by “and” are separate entries in the source; they are usually repeats but may differ in a detail not shown here. Equal entries are not always repeated. “Also recorded” adds a separate entry of the source. Where two headings read alike, the source gives them in different places.

Key:
TNF = TNF (Homo sapiens, UniProt P01375); experiment: Biacore binding with and without non-ionic detergent; parameters: stabilise an asymmetrical form of the soluble TNF trimer; conditions: 0.01% v/v Triton X-100 and 0.025% v/v Tween-80; Biacore T200
Description: Experiments to show any effect of addition of non-ionic detergent were performed on a Biacore, with human TNF on the solid phase and compounds in solution phase in the presence and absence of 0.01% v/v Triton X-100 and 0.025% v/v Tween-80.
Three Biacore T200s were treated with sodium hypochlorite to remove any traces of detergent. Each machine was equilibrated in either HBS with no detergent (control), HBS:
Tween-P80 (0.025% v/v) or HBS: Triton X-100 (0.01% v/v). Human TNF was tethered to ~ 2000 RU before equilibration in the equivalent control or detergent buffers plus 1% DMSO. […]
were fitted to a BIAevaluation T200 1:1 algorithm and the fitted data shown. […]

human TNF superfamily = experiment: Thermal denaturation, human TNF superfamily; assay type: binding; conditions: 100 µM compound, 0.1 mg/mL sample; single experiment
Description: A fluorescence probed thermal denaturation assay was performed to assess the effect of the compounds on the thermal stability of TNF (or other members of the TNF family) as a measure of compound binding. The reaction mixture contained 5 µL of 30× SYPRO® Orange dye (Invitrogen) and 5 µL of TNF (at 1 mg/mL), 37.5 μL PBS, pH 7.4 and 2.5 μL of compound (at 2 mM in DMSO). The mixture (10 µL) was dispensed in quadruplicate into a 384 PCR optical well plate and was run on a 7900HT Fast Real-Time PCR System ([…]). The PCR System heating device was set at 20 °C to 99 °C with a ramp rate of 1.1 °C min^−1; fluorescence changes in the wells were monitored by a CCD device. The fluorescence intensity increase was plotted as a function of temperature and the Tm calculated as the midpoint of this denaturation curve (determined as the point of inflection).
Compound based thermal stability increase (oC)
100 µM compound 0.1 mg/mL sample […]
compared to human TNF. Human proteins were provided through a collaboration with Beryllium. Data from a single experiment. […]
compared to mouse TNF. Mouse proteins were purchased from R&D Systems. (Note: No Tm for Lymphotoxin (LTa) was detected in this assay making a change in Tm unmeasurable).
Data from a single experiment.
(also on this page, place not known: 16.0Thermal 10Thermal stability difference (oC) stability increase (oC))

[1] = test system: TNFR1 signalling complex (RIP-1, pNF-κB); experiment: TNFR1 immunoprecipitation and signalling assay (Jurkat cells); assay type: cell-based, human; conditions: 10 µM compound pre-incubated 1 h with TNF 25 ng/mL, Western blot
Description: Cells were then lysed for 1 h in cold lysis buffer (1% NP-40, 150 mM NaCl, 50 mM Tris pH 8.0, 25 mM NaF, 1 mM vanadate, 1% phosphatase inhibitor and 0.2% protease inhibitor cocktail), and cell supernatant harvested. TNFR1 immunoprecipitation was performed by incubating supernatant with 5 µg anti-TNFR1 antibody (R&D systems, #AB-225-PB) overnight while rotating at 4 °C, followed by the addition of 20 µL protein G sepharose beads for 1 h rotating at 4 °C. An isotype control sample was incubated with 5 µg goat IgG, instead of anti-TNFR1 antibody to assess how much unspecific binding to the beads occurs during immunoprecipitation. Beads were subsequently washed 3× in lysis buffer, and then the supernatant removed and SDS-PAGE reducing sample buffer added to beads and samples boiled for 10 min. Sample (15 µL) was then loaded on a 4–12% Bis-Tris gel and run for 65 min at 200 V in MOPS buffer. […] RIP-1 ubiquitination (1:250 dilution, BD, #610459) was then detected by Western blotting using anti-mouse-HRP (1:2000 dilution, Cell Signalling Technology, #7076). pNFκB (1:1000 dilution, Cell Signalling Technology, #3033) and GAPDH (1:4000 dilution, Cell Signalling Technology, #5174) were measured in the total cell lysates by Western blotting using anti-rabbit HRP (1:2000 dilution, Cell Signalling Technology, #7074). […]

[2] = Blood exposure of UCB-9260 in the mouse models; assay type: in vivo; conditions: for concentration at 1 h: zymosan model
[3] = 150mg/kg, CAIA model, individual mice

Sequence of TNF (P01375 77-233 limits assumed): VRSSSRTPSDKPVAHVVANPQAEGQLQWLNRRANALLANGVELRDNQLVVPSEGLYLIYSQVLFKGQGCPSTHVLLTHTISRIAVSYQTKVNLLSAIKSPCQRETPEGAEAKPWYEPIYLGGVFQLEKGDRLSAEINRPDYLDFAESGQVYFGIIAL

Cc1ccc(C)c(Cn2c(C(O)c3ccncc3)nc3ccc(-c4cnn(C)c4)cc32)c1 (stereo not drawn) [UCB-9260]
effect of non-ionic detergents on binding to human TNF (TNF): does not alter the binding | change in Tm of other human TNF superfamily members (human TNF superfamily): negligible effect; also recorded: No other protein tested showed a significant change in Tm | RIP recruitment to TNFR signalling complex and phosphorylation of NF-κB [1]: markedly reduced | concentration at 0.5 h ([2]; 10mg/kg, human TNF neutrophilia model, individual mice, 0.5h post dose, read-out: Total exposure): 474.6 nM and 924.2 nM and 1089.9 nM | concentration at 0.5 h ([2]; 10mg/kg, human TNF neutrophilia model, individual mice, read-out: Free exposure): 26.2 nM and 11.4 nM and 22.2 nM | concentration at 0.5 h ([2]; 10mg/kg, mouse TNF neutrophilia model, individual mice, 0.5h post dose, read-out: Total exposure): 1244.4 nM and 1494.9 nM | concentration at 0.5 h ([2]; 10mg/kg, mouse TNF neutrophilia model, individual mice, read-out: Free exposure): 29.2 nM and 29.9 nM | concentration at 1 h ([2]; 10mg/kg, individual mice, read-out: free exposure 1h post dose): 2.5 nM and 2.4 nM and 0.6 nM and 1.0 nM and 1.8 nM and 4.0 nM and 2.1 nM and 2.3 nM | concentration at 1 h ([2]; 10mg/kg, individual mice, read-out: total exposure 1h post dose): 102.2 nM and 99.4 nM and 24.6 nM and 40.4 nM and 74.6 nM and 166.9 nM and 86.4 nM and 96.3 nM | concentration at 0.5 h ([2]; 30mg/kg, human TNF neutrophilia model, individual mice, 0.5h post dose, read-out: Total exposure): 10561.3 nM and 11259.5 nM and 3572.5 nM | concentration at 0.5 h ([2]; 30mg/kg, human TNF neutrophilia model, individual mice, read-out: Free exposure): 85.7 nM and 253.5 nM and 270.2 nM | concentration at 0.5 h ([2]; 30mg/kg, mouse TNF neutrophilia model, individual mice, 0.5h post dose, read-out: Total exposure): 7504.0 nM and 10604.5 nM | concentration at 0.5 h ([2]; 30mg/kg, mouse TNF neutrophilia model, individual mice, read-out: Free exposure): 239.5 nM and 180.1 nM | concentration at 1 h ([2]; 30mg/kg, individual mice, read-out: free exposure 1h post dose): 92.9 nM and 80.2 nM and 78.8 nM and 67.6 nM and 46.9 nM and 54.7 nM and 89.2 nM | concentration at 1 h ([2]; 30mg/kg, individual mice, read-out: total exposure 1h post dose): 3868.9 nM and 3340.4 nM and 3284.9 nM and 2814.8 nM and 1955.1 nM and 2278.1 nM and 3715.9 nM | concentration at 0.5 h ([2]; 100mg/kg, human TNF neutrophilia model, individual mice, 0.5h post dose, read-out: Total exposure): 23486.3 nM and 36904.4 nM | concentration at 0.5 h ([2]; 100mg/kg, human TNF neutrophilia model, individual mice, read-out: Free exposure): 698.5 nM and 563.7 nM | concentration at 0.5 h ([2]; 100mg/kg, mouse TNF neutrophilia model, individual mice, 0.5h post dose, read-out: Total exposure): 80513.8 nM and 31681.7 nM | concentration at 0.5 h ([2]; 100mg/kg, mouse TNF neutrophilia model, individual mice, read-out: Free exposure): 760.4 nM and 1932.3 nM | concentration at 1 h ([2]; 100mg/kg, individual mice, read-out: free exposure 1h post dose): 700.8 nM and 684.7 nM and 194.3 nM and 787.1 nM and 495.2 nM and 309.3 nM and 1017.0 nM and 852.7 nM | concentration at 1 h ([2]; 100mg/kg, individual mice, read-out: total exposure 1h post dose): 29201.0 nM and 28529.7 nM and 8095.9 nM and 32795.2 nM and 20631.9 nM and 12886.1 nM and 42373.7 nM and 35527.1 nM | Cave post 1st dose (free) ([2]; 150 mg/kg B.I.D., CAIA model): 307 ± 74 nM | Cave post 1st dose total ([2]; 150 mg/kg B.I.D., CAIA model): 12,808 ± 3,070 nM | Free UCB-9260, 1 hour [2, 3]: 535.0 nM and 406.9 nM and 100.9 nM and 971.5 nM and 479.3 nM | Free UCB-9260, 6 hour [2, 3]: 368.0 nM and 6.0 nM and 50.3 nM and 428.5 nM and 99.9 nM | Total UCB-9260, 1 hour [2, 3]: 22.292 µM and 16.9554 µM and 4.206 µM and 40.4784 µM and 19.9726 µM and 13.3543 µM | Total UCB-9260, 6 hour [2, 3]: 15.3347 µM and 0.2521 µM and 2.096 µM and 17.8525 µM and 4.1624 µM and 34.4762 µM | concentration at 0.5 h ([2]; 300mg/kg, human TNF neutrophilia model, individual mice, 0.5h post dose, read-out: Total exposure): 57489.1 nM and 49482.4 nM | concentration at 0.5 h ([2]; 300mg/kg, human TNF neutrophilia model, individual mice, read-out: Free exposure): 996.6 nM and 1379.7 nM | concentration at 0.5 h ([2]; 300mg/kg, mouse TNF neutrophilia model, individual mice, 0.5h post dose, read-out: Total exposure): 47166.3 nM and 48883.6 nM | concentration at 0.5 h ([2]; 300mg/kg, mouse TNF neutrophilia model, individual mice, read-out: Free exposure): 1511.9 nM and 1132.0 nM | concentration at 1 h ([2]; 300mg/kg, individual mice, read-out: free exposure 1h post dose): 551.7 nM and 816.2 nM and 450.0 nM and 187.4 nM and 584.7 nM and 1013.9 nM and 538.9 nM and 1275.4 nM | concentration at 1 h ([2]; 300mg/kg, individual mice, read-out: total exposure 1h post dose): 22987.2 nM and 34009.1 nM and 18750.9 nM and 7806.7 nM and 24360.9 nM and 42244.6 nM and 22455.4 nM and 53141.6 nM | concentration at 0.5 h ([2]; Balb/c, mouse, blood, oral, 10 mg/kg, 10 mg/kg p.o., human TNF neutrophilia model, mean n=3 ± s.e.m., read-out: Blood concentration 0.5h post dose total): 830 ± 184 nM | concentration at 0.5 h ([2]; Balb/c, mouse, blood, oral, 10 mg/kg, 10 mg/kg p.o., mouse TNF neutrophilia model, Fu 2.4%, read-out: Blood concentration 0.5h post dose (free)): 32 ± 2 nM | concentration at 0.5 h ([2]; Balb/c, mouse, blood, oral, 10 mg/kg, 10 mg/kg p.o., mouse TNF neutrophilia model, mean n=3 ± s.e.m., read-out: Blood concentration 0.5h post dose total): 1320 nM
